Experimental data from publication PMC7587962, “Evaluation of Cytotoxicity and α-Glucosidase Inhibitory Activity of Amide and Polyamino-Derivatives of Lupane Triterpenoids” (Molecules, 2020).
Read-outs that look alike come from different tables or passages of the source.

Assays:
CCRF-CEM = assay: NCI-60 SRB screen: leukemia CCRF-CEM; type: cell-based; conditions: Homo sapiens, 48 h
K-562 = assay: NCI-60 SRB screen: leukemia K-562; type: cell-based, human; conditions: K-562
MOLT-4 = assay: NCI-60 SRB screen: leukemia MOLT-4; type: cell-based; conditions: Homo sapiens, 48 h, MOLT-4
RPMI-8226 = assay: NCI-60 SRB screen: leukemia RPMI-8226; type: cell-based; conditions: Homo sapiens, 48 h, RPMI-8226
EKVX = assay: NCI-60 SRB screen: non-small cell lung cancer EKVX; type: cell-based, human
HOP-62 = assay: NCI-60 SRB screen: non-small cell lung cancer HOP-62; type: cell-based, human; conditions: HOP-62
HOP-92 = assay: NCI-60 SRB screen: non-small cell lung cancer HOP-92; type: cell-based, human; conditions: HOP-92
NCI-H226 = assay: NCI-60 SRB screen: non-small cell lung cancer NCI-H226; type: cell-based, human; conditions: NCI-H226
NCI-H23 = assay: NCI-60 SRB screen: non-small cell lung cancer NCI-H23; type: cell-based, human; conditions: NCI-H23
NCI-H522 = assay: NCI-60 SRB screen: non-small cell lung cancer NCI-H522; type: cell-based, human; conditions: NCI-H522
HCC-2998 = assay: NCI-60 SRB screen: colon cancer HCC-2998; type: cell-based, human; conditions: HCC-2998
HCT-116 = assay: NCI-60 SRB screen: colon cancer HCT-116; type: cell-based; conditions: Homo sapiens, 48 h, HCT-116
SW-620 = assay: NCI-60 SRB screen: colon cancer SW-620; type: cell-based; conditions: Homo sapiens, 48 h, SW-620
SNB-75 = assay: NCI-60 SRB screen: CNS cancer SNB-75; type: cell-based, human; conditions: SNB-75
U251 = assay: NCI-60 SRB screen: CNS cancer U251; type: cell-based; conditions: Homo sapiens, U251
MDA-MB-435 = assay: NCI-60 SRB screen: melanoma MDA-MB-435; type: cell-based, human; conditions: MDA-MB-435
SK-MEL-28 = assay: NCI-60 SRB screen: melanoma SK-MEL-28; type: cell-based, human; conditions: SK-MEL-28
SK-MEL-5 = assay: NCI-60 SRB screen: melanoma SK-MEL-5; type: cell-based, human; conditions: SK-MEL-5
OVCAR-3 = assay: NCI-60 SRB screen: ovarian cancer OVCAR-3; type: cell-based, human; conditions: OVCAR-3
OVCAR-4 = assay: NCI-60 SRB screen: ovarian cancer OVCAR-4; type: cell-based; conditions: Homo sapiens; OVCAR-4; five concentrations, 48 h, SRB; read-out: GI50
OVCAR-5 = assay: NCI-60 SRB screen: ovarian cancer OVCAR-5; type: cell-based, human; conditions: OVCAR-5
NCI/ADR-RES = assay: NCI-60 SRB screen: ovarian cancer NCI/ADR-RES; type: cell-based, human
786-0 = assay: NCI-60 SRB screen: renal cancer 786-0; type: cell-based, human; conditions: 786-0
A498 = assay: NCI-60 SRB screen: renal cancer A498; type: cell-based, human; conditions: A498
SN12C = assay: NCI-60 SRB screen: renal cancer SN12C; type: cell-based, human
PC-3 = assay: NCI-60 SRB screen: prostate cancer PC-3; type: cell-based, human; conditions: PC-3
DU-145 = assay: NCI-60 SRB screen: prostate cancer DU-145; type: cell-based, human; conditions: DU-145
MDA-MB-231/ATCC = assay: NCI-60 SRB screen: breast cancer MDA-MB-231/ATCC; type: cell-based; conditions: Homo sapiens, 48 h
T-47D = assay: NCI-60 SRB screen: breast cancer T-47D; type: cell-based, human; conditions: T-47D
[1] = system: 60 human tumor cell lines; assay: cells
Leukemia subpanel = assay: NCI-60 screen, subpanel Leukemia
Melanoma subpanel = assay: NCI-60 screen, subpanel Melanoma
Ovarian Cancer subpanel = assay: NCI-60 screen, subpanel Ovarian Cancer
Prostate cancer subpanel = assay: NCI-60 screen, subpanel Prostate cancer
[2] = single dose 10 µM, read-out: Percentage Cell Growth
[3] = five concentrations, SRB, read-out: GI50
[4] = Homo sapiens, five concentrations, 48 h, SRB, read-out: GI50

Compound: C=C(C)[C@@H]1CC[C@]2(C(=O)NCCNCCNCCN)CC[C@]3(C)[C@H](CC[C@@H]4[C@@]5(C)CCC(=O)C(C)(C)[C@@H]5CC[C@]43C)[C@@H]12 [Compound 11]
- activity at 10 µM (CCRF-CEM; [2]): -11.3%
- GI50 (CCRF-CEM; [3]): 9.65 µM
- GI50 (K-562; Homo sapiens, K562, five concentrations, 48 h, SRB, read-out: GI50): 8.2 µM
- Percentage Cell Growth (K-562; single dose 10 µM): −16.99%
- activity at 10 µM (MOLT-4; [2]): -16.3%
- GI50 (MOLT-4; [3]): 6.96 µM
- activity at 10 µM (RPMI-8226; [2]): -30.7%
- GI50 (RPMI-8226; [3]): 6.78 µM
- GI50 (EKVX; [4]): 7.34 µM
- Percentage Cell Growth (EKVX; single dose 10 µM): 11.37%
- Percentage Cell Growth (HOP-62; single dose 10 µM): 43.09%
- GI50 (HOP-62; [4]): 7.91 µM
- Percentage Cell Growth (HOP-92; single dose 10 µM): −65.19%
- GI50 (HOP-92; [4]): 2.93 µM
- GI50 (NCI-H226; [4]): 7.74 µM
- Percentage Cell Growth (NCI-H226; single dose 10 µM): 74.30%
- GI50 (NCI-H23; [4]): 9.14 µM
- Percentage Cell Growth (NCI-H23; single dose 10 µM): −35.23%
- GI50 (NCI-H522; [4]): 8.72 µM
- Percentage Cell Growth (NCI-H522; single dose 10 µM): −69.70%
- Percentage Cell Growth (HCC-2998; single dose 10 µM): −90.04%
- GI50 (HCC-2998; [4]): 7.16 µM
- activity at 10 µM (HCT-116; [2]): -80.7%
- GI50 (HCT-116; [3]): 6.65 µM
- activity at 10 µM (SW-620; [2]): -76.7%
- GI50 (SW-620; [3]): 7.91 µM
- GI50 (SNB-75; [4]): 6.26 µM
- Percentage Cell Growth (SNB-75; single dose 10 µM): −41.55%
- activity at 10 µM (U251; U-251, 48 h, single dose 10 µM, read-out: Percentage Cell Growth): -81.8%
- GI50 (U251; U-251, five concentrations, 48 h, SRB, read-out: GI50): 7.34 µM
- GI50 (MDA-MB-435; [4]): 8.7 µM
- Percentage Cell Growth (MDA-MB-435; single dose 10 µM): −49.89%
- GI50 (SK-MEL-28; [4]): 8.49 µM
- Percentage Cell Growth (SK-MEL-28; single dose 10 µM): −73.91%
- GI50 (SK-MEL-5; [4]): 6.98 µM
- Percentage Cell Growth (SK-MEL-5; single dose 10 µM): −86.18%
- GI50 (OVCAR-3; [4]): 7.65 µM
- Percentage Cell Growth (OVCAR-3; single dose 10 µM): −72.48%
- GI50 (OVCAR-4): 7.39 µM
- GI50 (OVCAR-5; [4]): 8.78 µM
- Percentage Cell Growth (OVCAR-5; single dose 10 µM): −44.11%
- GI50 (NCI/ADR-RES; [4]): 8.41 µM
- Percentage Cell Growth (NCI/ADR-RES; single dose 10 µM): −73.33%
- Percentage Cell Growth (786-0; single dose 10 µM): −84.46%
- GI50 (786-0; [4]): 7.8 µM
- Percentage Cell Growth (A498; single dose 10 µM): 80.81%
- GI50 (A498; [4]): 42.6 µM
- GI50 (SN12C; [4]): 7.56 µM
- Percentage Cell Growth (SN12C; single dose 10 µM): −88.48%
- GI50 (PC-3; [4]): 6.26 µM
- Percentage Cell Growth (PC-3; single dose 10 µM): −24.64%
- Percentage Cell Growth (DU-145; single dose 10 µM): −56.67%
- GI50 (DU-145; [4]): 7.47 µM
- activity at 10 µM (MDA-MB-231/ATCC; MDA-MB-231/ATCC, single dose 10 µM, read-out: Percentage Cell Growth): -92.4%
- GI50 (MDA-MB-231/ATCC; MDA-MB-231, MDA-MB-31/ATCC, five concentrations, SRB, read-out: GI50): 8.03 µM
- GI50 (T-47D; Homo sapiens, T47D, five concentrations, 48 h, SRB, read-out: GI50): 7.52 µM
- Percentage Cell Growth (T-47D; single dose 10 µM): −4.36%
- GI50 ([1]; read-out: GI50 ranges against all panels of NCI60): 5.6 to 50 µM
- GI50 ([1]; read-out: MID a, average sensitivity of all cell line (GI50-MID)): 9.17 µM
- MID b, average sensitivity of all cell line of particular subpanel (Leukemia subpanel): 7.73 µM
- Selectivity, ratio MID a: MID b (Leukemia subpanel): 1.19
- MID b, average sensitivity of all cell line of particular subpanel (Melanoma subpanel): 12.84 µM
- Selectivity, ratio MID a: MID b (Melanoma subpanel): 0.71
- MID b, average sensitivity of all cell line of particular subpanel (Ovarian Cancer subpanel): 8.24 µM
- Selectivity, ratio MID a: MID b (Ovarian Cancer subpanel): 1.11
- MID b, average sensitivity of all cell line of particular subpanel (Prostate cancer subpanel): 6.87 µM
- Selectivity, ratio MID a: MID b (Prostate cancer subpanel): 1.33
